Reference: ChEMBL document CHEMBL1130684, “Potent, non-thiol inhibitors of farnesyltransferase” (Bioorg Med Chem Lett, 1998)

These compounds were tested against T1, Protein farnesyltransferase (Homo sapiens, UniProt P49354+P49356) (assay: Inhibition of [3H]- FPP incorporation into recombinant Ha-Ras by farnesyl transferase at 10 pM).
Format: protein-complex assay

CCC(C)[C@@H](CN(CC(=O)N[C@@H](CCSC)C(=O)O)Cc1cccc2ccccc12)NC[C@@H](N)CS (some centres not stated) gave an IC50 of 0.000123 µM.

These compounds were tested against T1, Protein farnesyltransferase (assay: Inhibition of FTase-catalyzed incorporation of [3H]- FPP radioligand into recombinant Ha-Ras by 50% at an enzyme concentration of 1 nM.).
Format: protein-complex assay

CCC(C)[C@@H](CN(CC(=O)N[C@@H](CCSC)C(=O)O)Cc1cccc2ccccc12)NC(=O)CSCc1ccc(-c2ccccc2)cc1 (some centres not stated) and CCC(C)[C@@H](CN(CC(=O)N[C@@H](CCSC)C(=O)O)Cc1cccc2ccccc12)NC(=O)CSCc1ccccc1 (some centres not stated) are within 1.5-fold of each other in IC50: 0.029 µM for the first, 0.036 µM for the second.

CCC(C)[C@@H](CN(CC(=O)N[C@@H](CCSC)C(=O)O)Cc1cccc2ccccc12)NC(=O)CSCc1ccc(C)cc1 (some centres not stated) and CCC(C)[C@@H](CN(CC(=O)N[C@@H](CCSC)C(=O)O)Cc1cccc2ccccc12)NC(=O)CSCc1ccc(OC)cc1 (some centres not stated) are within 1.5-fold of each other in IC50: 0.014 µM for the first, 0.017 µM for the second.

CCC(C)[C@@H](CN(CC(=O)N[C@@H](CCSC)C(=O)O)Cc1cccc2ccccc12)NC(=O)C[S+]([O-])Cc1ccccc1 (some centres not stated) and CCC(C)[C@@H](CN(CC(=O)N[C@@H](CCSC)C(=O)O)Cc1cccc2ccccc12)NC(=O)COCc1ccccc1 (some centres not stated) are within 1.5-fold of each other in IC50: 0.16 µM for the first, 0.23 µM for the second.

CCC(C)[C@@H](CN(CC(=O)N[C@@H](CCSC)C(=O)O)Cc1ccccc1)NC(=O)CSc1nnc(N)s1 (some centres not stated) and CCC(C)[C@@H](CN(CC(=O)N[C@@H](CCSC)C(=O)O)Cc1ccccc1)NC(=O)CSc1nc[nH]n1 (some centres not stated) cannot be ordered by IC50: > 10 µM for the first, > 10 µM for the second.

Compared with CCC(C)[C@@H](CN(CC(=O)N[C@@H](CCSC)C(=O)O)Cc1cccc2ccccc12)NC(=O)CSCc1ccc(S(C)(=O)=O)cc1 (some centres not stated), CCC(C)[C@@H](CN(CC(=O)N[C@@H](CCSC)C(=O)O)Cc1cccc2ccccc12)NC(=O)CSCc1ccc([N+](=O)[O-])cc1 (some centres not stated) is 2.6-fold lower in IC50: 0.016 µM for the first, 0.0062 µM for the second. The second is the more potent here.

Going from CCC(C)[C@@H](CN(CC(=O)N[C@@H](CCSC)C(=O)O)Cc1cccc2ccccc12)NC(=O)CN(Cc1ccccc1)C(C)=O (some centres not stated) to CCC(C)[C@@H](CN(CC(=O)N[C@@H](CCSC)C(=O)O)Cc1cccc2ccccc12)NC(=O)CN(Cc1ccccc1)C(=O)OC(C)(C)C (some centres not stated), the IC50 rises from 0.07 µM to 0.26 µM (3.7-fold).

Compared with CCC(C)[C@@H](CN(CC(=O)N[C@@H](CCSC)C(=O)O)Cc1cccc2ccccc12)NC(=O)CSCc1ccc(C#N)cc1 (some centres not stated), CCC(C)[C@@H](CN(CC(=O)N[C@@H](CCSC)C(=O)O)Cc1cccc2ccccc12)NC(=O)CSCc1ccc(C(F)(F)F)cc1 (some centres not stated) is 6.9-fold higher in IC50: 0.0054 µM for the first, 0.037 µM for the second. The first is the more potent here.

First: CCC(C)[C@@H](CN(CC(=O)N[C@@H](CCSC)C(=O)O)Cc1cccc2ccccc12)NC(=O)CNCc1ccccc1 (some centres not stated)
Second: CCC(C)[C@@H](CN(CC(=O)N[C@@H](CCSC)C(=O)O)Cc1cccc2ccccc12)NC(=O)CSCCc1ccccc1 (some centres not stated)
The IC50 of the first is 1.6-fold higher: 0.19 µM for the first, 0.12 µM for the second. The second is the more potent here.

CCC(C)[C@@H](CN(CC(=O)N[C@@H](CCSC)C(=O)O)Cc1cccc2ccccc12)NC(=O)CS(=O)(=O)Cc1ccccc1 (some centres not stated) and CCC(C)[C@@H](CN(CC(=O)N[C@@H](CCSC)C(=O)O)Cc1cccc2ccccc12)NC(=O)CCCCc1ccccc1 (some centres not stated) are within 1.5-fold of each other in IC50: 0.31 µM for the first, 0.23 µM for the second.

Compared with CCC(C)[C@@H](CN(CC(=O)N[C@@H](CCSC)C(=O)O)Cc1ccccc1)NC(=O)CSc1nc2ccccc2[nH]1 (some centres not stated), CCC(C)[C@@H](CN(CC(=O)N[C@@H](CCSC)C(=O)O)Cc1cccc2ccccc12)NC(=O)CSc1ccccc1 (some centres not stated) is lower in IC50: > 10 µM for the first, 0.051 µM for the second.

Going from CCC(C)[C@@H](CN(CC(=O)N[C@@H](CCSC)C(=O)O)Cc1cccc2ccccc12)NC(=O)CSCc1ccncc1 (some centres not stated) to CCC(C)[C@@H](CN(CC(=O)N[C@@H](CCSC)C(=O)O)Cc1cccc2ccccc12)NC(=O)CSc1ccncc1 (some centres not stated), the IC50 falls from 0.23 µM to 0.017 µM (14-fold). The second is the more potent here.

Going from CCC(C)[C@@H](CN(CC(=O)N[C@@H](CCSC)C(=O)O)Cc1cccc2ccccc12)NC(=O)CSCc1cccc([N+](=O)[O-])c1 (some centres not stated) to CCC(C)[C@@H](CN(CC(=O)N[C@@H](CCSC)C(=O)O)Cc1cccc2ccccc12)NC(=O)CSCc1ccccc1[N+](=O)[O-] (some centres not stated), the IC50 rises from 0.023 µM to 0.086 µM (3.7-fold). The first is the more potent here.

Going from CCC(C)[C@@H](CN(CC(=O)N[C@@H](CCSC)C(=O)O)Cc1cccc2ccccc12)NCc1cnc[nH]1 (some centres not stated) to CCC(C)[C@@H](CN(CC(=O)N[C@@H](CCSC)C(=O)O)Cc1cccc2ccccc12)NC(=O)CCCc1ccc([N+](=O)[O-])cc1 (some centres not stated), the IC50 falls from 0.031 µM to 0.019 µM (1.6-fold). The second is the more potent here.
